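Each compound was tested at five concentrations against cells in 96-well plates for 48 hours. GI50 is the concentration that inhibits growth by half. TGI is the concentration that stops growth completely.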
How the values were obtained:
Assay in all cases: growth of human tumour cells (NCI), 48 h
A498 renal = test system: A498 renal
A549 NSCLC = test system: A549 NSCLC
CCRF-CEM leukemia = test system: CCRF-CEM leukemia
MDA-N = test system: MDA-N
OVCAR-3 ovarian = test system: OVCAR-3 ovarian
SK-MEL-2 melanoma = test system: SK-MEL-2 melanoma
SNB-19 CNS = test system: SNB-19 CNS
T-47D breast = test system: T-47D breast
U251 CNS = test system: U251 CNS
RXF 393 renal = test system: RXF 393 renal

Structure (SMILES)	TGI (A498 renal) [µM]	TGI (A549 NSCLC) [µM]	TGI (CCRF-CEM leukemia) [µM]	TGI (MDA-N) [µM]	TGI (OVCAR-3 ovarian) [µM]	TGI (SK-MEL-2 melanoma) [µM]	TGI (SNB-19 CNS) [µM]	TGI (T-47D breast) [µM]	TGI (U251 CNS) [µM]	TGI (RXF 393 renal) [µM]	GI50 (A498 renal) [µM]	GI50 (CCRF-CEM leukemia) [µM]	GI50 (OVCAR-3 ovarian) [µM]	GI50 (SK-MEL-2 melanoma) [µM]	GI50 (T-47D breast) [µM]
CN1C(=O)c2c(c3c4ccccc4n(C)c3c3c2c2ccccc2n3C)C1=O	> 100	> 100	> 100	> 100	> 100	> 100	> 100	> 100	> 100	–	–	–	–	–	–
O=C(C#Cc1ccccc1)Nc1ccccc1CC(c1c[nH]c2ccccc12)c1c[nH]c2ccccc12	–	> 100	20	–	29.2	51.9	> 100	–	–	14	–	–	–	–	–
OC[C@H](O)[C@@H](OCc1ccccc1)[C@H](NCc1ccccc1)c1cccs1	> 100	> 100	> 100	> 100	> 100	> 100	> 100	> 100	> 100	–	–	–	–	–	–
CCOC(=O)C(NS(=O)(=O)c1ccccc1)(C(F)(F)F)P(=O)(OCC(C)C)OCC(C)C (centres undefined)	> 100	> 100	> 100	> 100	> 100	–	> 100	> 100	> 100	> 100	–	–	–	–	–
CCCN1CCN(c2ccc3nc(-c4ccc5nc(-c6ccc(OCC)cc6)[nH]c5c4)[nH]c3c2)CC1	3.01	–	3.58	–	3.59	5.86	–	6.36	–	–	1.3	0.629	1.99	2.34	1.41
COc1cc2ccnc3c2c(c1OC)N(C)C=C3	> 100	41	–	36.1	> 100	57.6	75.9	> 100	> 100	68.6	–	–	–	–	–
O=C1C2Cc3ccccc3CN2C(=O)N1CN1CCCCC1 (centres undefined)	> 100	> 100	> 100	–	> 100	> 100	> 100	–	> 100	–	–	–	–	–	–
COc1ccc2nc3c(nc2c1)C(C)(C)C=C3c1ccc(Br)cc1	> 100	> 100	> 100	> 100	–	> 100	> 100	> 100	> 100	> 100	–	–	–	–	–
CCOC(=O)C1=C(C)NC(c2ccccc2)=C(C(=O)OCc2ccccc2)C1C#Cc1ccccc1 (centres undefined)	> 100	–	> 100	> 100	> 100	> 100	> 100	> 100	> 100	> 100	–	–	–	–	–
Cc1ccc2c(=O)cc(-c3ccccc3)[nH]c2n1	–	> 100	–	0.0999	0.308	> 100	> 100	> 100	> 26.3	0.486	–	–	–	–	–
OC[C@@H](O)[C@H](O)[C@H](O)[C@@H](O)C1SCCCS1	> 100	> 100	–	> 100	> 100	> 100	> 100	> 100	> 100	> 100	–	–	–	–	–
CC(=O)[C@H]1CC[C@@H]2[C@]1(C)CC=C1[C@]23C=C[C@]2(C[C@@H](O)CC[C@]12C)C(C(=O)O)C3C(=O)O (some centres undefined)	> 100	> 100	> 100	> 100	> 100	> 100	> 100	> 100	> 100	–	–	–	–	–	–
Nc1nc(Cl)cc(OCC2(CO)CCCCC2)n1	> 100	> 100	> 100	> 100	> 100	–	> 100	–	> 100	> 100	–	–	–	–	–
CC(=O)O[C@H]1C(=O)[C@@]2(C)C(C(OC(=O)c3ccccc3)[C@]3(O)CC(OC(=O)C(O)C(NC(=O)c4cccc(Cl)c4)c4ccccc4)C(C)=C1C3(C)C)[C@]1(OC(C)=O)CO[C@@H]1C[C@@H]2O (some centres undefined)	–	> 10	5.91	0.334	> 10	> 10	> 10	–	8.9	–	–	–	–	–	–
Cn1c(=Nc2ccccc2[N+](=O)[O-])sc2ccccc21	> 100	> 100	> 100	> 100	–	> 100	> 100	> 100	> 100	> 100	–	–	–	–	–
COc1ccc(C2=Nn3c(nc4sc5c(c4c3=O)CCCC5)SC2)cc1	> 100	> 100	> 100	> 100	> 100	–	–	> 100	> 100	> 100	–	–	–	–	–
Nc1ccc(Oc2ccc(C34CC5CC(C3)CC(c3ccc(Oc6ccc(N)c(O)c6)cc3)(C5)C4)cc2)cc1O	36.1	3.24	–	–	5.05	5.1	7.5	4.07	2.72	3.33	–	–	–	–	–
COC(=O)C1=C(C(=O)OC)SC2(S1)C(C(=O)OC)=C(C(=O)OC)Sc1c2ssc1=O	3.68	31	0.307	3.57	2.38	4.1	34.2	–	4.68	2.7	–	–	–	–	–
O=c1oc2c(Cl)cc(Cl)cc2cc1-c1cn2c(n1)sc1ccccc12	–	> 100	55.6	> 100	> 100	> 100	> 100	> 100	> 100	> 100	–	–	–	–	–
CN(C)CCNC(=O)c1cccc2c(NC(CCCN=C(N)N)C(=O)O)c3ccccc3nc12 (centres undefined)	61.3	> 100	> 100	> 100	> 100	38.4	47	–	> 100	–	–	–	–	–	–
O=C(O)Cn1cnc2c(=O)[nH]c(Nc3ccccc3)nc21	> 100	> 100	> 100	> 100	> 100	> 100	> 100	> 100	> 100	–	–	–	–	–	–
O=C(NC1CCCCC1)N1CCNC1=S	> 100	> 100	> 100	> 100	> 100	7.09	–	> 100	–	> 100	–	–	–	–	–
Cc1nc2cc3[nH]c4ccccc4c(=O)c3cc2s1	> 100	> 100	> 100	–	> 100	> 100	> 100	–	> 100	> 100	–	–	–	–	–
